This is an account of results in patent US20230248741A1, “Compositions and Methods for Lowering Triglycerides in a Subject with Reduced Kidney Function and Diabetes Mellitus” (Amarin Pharmaceuticals Ireland Limited, priority 2018, published 2023).

Series [1] has as its system patients with eGFR <90 mL/min/1.73 m^2 for ≥3 months and hsCRP ≥2.0 mg/L. As to the kind of experiment: ANCHOR post-hoc: lipid parameters. Type of series: in vivo, human. Conditions: 4 g/day; 12 weeks; P<0.0001. On the procedure:
CVD-related (e.g., atherogenic) parameters were analyzed in a post-hoc study of 152 patients from the multi-center, placebo-controlled, randomized double-blind, 12-week study described in Example 1. These 152 patients have reduced kidney reduced function (e.g., eGFR<90 mL/min/1.73 m^2 for ≥3 months) and hsCRP≥2.0 mg/L.
Subjects: 72 patients were randomized to E-EPA and 80 patients were randomized to placebo. In total, atherogenic parameters were analyzed in all 152 patients, 54% of which were male and 99% of which were white. The mean age of the 152 patients was 64 years old.
The primary objective of this post-hoc study, was to determine if and how 4 g of daily of >96% E-EPA, compared to placebo, affects patients with reduced kidney function, elevated hsCRP (e.g, hsCRP≥2.0 mg/L), and high triglyceride levels. […] CVD-parameters were analyzed for median difference in percent change from baseline to week 12 in subjects receiving 4 g/day of E-EPA and those receiving the placebo.
Analysis: The median difference in lipid/lipoprotein, apolipoprotein, and inflammatory parameters were determined from baseline to week 12 for 4/g day of E-EPA compared to placebo.

Series [2] relates to patients with chronic kidney disease (eGFR <60 mL/min/1.73 m^2 for ≥3 months). As to the kind of experiment: ANCHOR post-hoc (CKD): renal parameters and TEAEs. Type of series: in vivo, human. On the procedure:
CVD-related (e.g., atherogenic) parameters were analyzed in a post-hoc study of 55 patients from the multi-center, placebo-controlled, randomized double-blind, 12-week study described in Example 1. These 55 patients have chronic kidney disease (e.g., eGFR<60 mL/min/1.73 m^2 for ≥3 months). There was no lower limit of eGFR specified. Analysis: The median difference in percent change from baseline between 4 g/day of E-EPA and placebo for the primary efficacy variable and additional assessments were estimated using the Hodges-Lehmann method (P values from the Wilcoxon rank-sum test for treatment comparisons). Using the Hodges-Lehmann method, departures from normal distribution were observed; for normally distributed parameters, an analysis of covariance model was used with least squares (LS) means and standard errors (SE). Missing values were imputed using the last-observation-carried-forward method. For all post hoc analyses, the alpha for statistical significance was 0.05.

Setting [3] is: 4 g/day group, before treatment.

As for `CC/C=C\C/C=C\C/C=C\C/C=C\C/C=C\CCCC(=O)OCC` [E-EPA, ethyl eicosapentaenoate], the “reduction of triglycerides compared to placebo” value in series [1] is “about 16.9%”. In series [2] (4 g/day), the “BUN at week 12, median (IQR)” value is 22.5 (11.0) mg/dL; the “Nausea, nasopharyngitis, and arthralgia” value is given as “not reported by any patients”; the “eGFR at week 12, median (IQR)” value was 56.0 (12.9) mL/min/1.73 m^2; the “serum creatinine at week 12, median (IQR)” value is reported as 1.2 (0.4) mg/dL. In addition, the “serum creatinine, BUN, or eGFR from baseline to week 12 compared to placebo” value in series [2] (4 g/day) is reported as “did not produce significant changes”. Also, in series [2] (setting [3]), the “BUN at baseline, median (IQR)” value is recorded as 24.5 (12.0) mg/dL; the “eGFR at baseline, median (IQR)” value is recorded as 55.0 (13.8) mL/min/1.73 m^2; the “serum creatinine at baseline, median (IQR)” value was 1.2 (0.3) mg/dL. In series [2] (4 g/day, 2 patients), this compound came in with a patients with diarrhea of 10.5%. Also, the “patients with TEAE” value in series [2] (4 g/day, 11 of 19 patients) was 57.9%. In series [2] (4 g/day, 12 weeks), the serum albumin entry is given as “no significant median changes from baseline”. Also, in series [2] (4 g/day, P=0.1983), the “eGFR, median difference in change from baseline compared with placebo” value is −7.8% and the “serum creatinine, median difference in change from baseline compared with placebo” value was 6.5%. For the same compound, the “BUN, median difference in change from baseline compared with placebo” value in series [2] (4 g/day, P=0.5291) is 5.5%. For the same compound, the “BUN, median difference in change from baseline compared with placebo” value in series [2] (4 g/day, P=0.5471) was 1.0 mg/dL.
